Results reported in patent publication US10968215B2 (SHANGHAI HAIHE PHARMACEUTICAL CO., LTD., priority 2016, dated 2021).
Like-named read-outs stand apart in the source and are kept apart here.

Target: PRC2 complex (EZH2 Y641F/EED/SUZ12/RbAp48/AEBP2) (Homo sapiens (Human), UniProt Q15910, Y641F)
Assay: Activity of a compound to PRC2 complex (EZH2 Y641F), HTRF
[1] = read-out: IC50 (EZH2_Y641F), EZH2 Y641F PRC2 complex, HTRF, class symbols

Chain of PRC2 complex (EZH2 Y641F/EED/SUZ12/RbAp48/AEBP2) (Q15910 whole entry Y641F): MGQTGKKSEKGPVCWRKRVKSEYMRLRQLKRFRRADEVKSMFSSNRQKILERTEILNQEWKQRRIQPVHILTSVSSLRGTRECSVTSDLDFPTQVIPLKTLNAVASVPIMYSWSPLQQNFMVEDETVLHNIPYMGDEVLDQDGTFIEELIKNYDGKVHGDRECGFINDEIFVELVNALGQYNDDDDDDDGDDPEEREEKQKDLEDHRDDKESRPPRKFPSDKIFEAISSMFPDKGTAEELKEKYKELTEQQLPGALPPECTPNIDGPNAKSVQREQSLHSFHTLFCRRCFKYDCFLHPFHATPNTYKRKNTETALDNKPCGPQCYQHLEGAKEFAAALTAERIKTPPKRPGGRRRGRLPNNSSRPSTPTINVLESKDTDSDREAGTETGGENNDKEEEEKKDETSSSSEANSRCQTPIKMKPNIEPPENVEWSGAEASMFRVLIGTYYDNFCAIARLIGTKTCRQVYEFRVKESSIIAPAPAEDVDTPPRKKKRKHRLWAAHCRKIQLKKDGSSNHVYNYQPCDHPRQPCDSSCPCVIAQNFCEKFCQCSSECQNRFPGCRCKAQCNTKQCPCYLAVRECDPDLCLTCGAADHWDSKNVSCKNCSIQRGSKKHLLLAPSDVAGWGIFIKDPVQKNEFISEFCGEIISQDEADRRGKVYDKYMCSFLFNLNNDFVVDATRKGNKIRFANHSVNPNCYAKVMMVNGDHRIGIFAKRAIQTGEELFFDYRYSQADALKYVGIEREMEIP
Chain of PRC2 complex (EZH2 Y641F/EED/SUZ12/RbAp48/AEBP2) (O75530 whole entry partner): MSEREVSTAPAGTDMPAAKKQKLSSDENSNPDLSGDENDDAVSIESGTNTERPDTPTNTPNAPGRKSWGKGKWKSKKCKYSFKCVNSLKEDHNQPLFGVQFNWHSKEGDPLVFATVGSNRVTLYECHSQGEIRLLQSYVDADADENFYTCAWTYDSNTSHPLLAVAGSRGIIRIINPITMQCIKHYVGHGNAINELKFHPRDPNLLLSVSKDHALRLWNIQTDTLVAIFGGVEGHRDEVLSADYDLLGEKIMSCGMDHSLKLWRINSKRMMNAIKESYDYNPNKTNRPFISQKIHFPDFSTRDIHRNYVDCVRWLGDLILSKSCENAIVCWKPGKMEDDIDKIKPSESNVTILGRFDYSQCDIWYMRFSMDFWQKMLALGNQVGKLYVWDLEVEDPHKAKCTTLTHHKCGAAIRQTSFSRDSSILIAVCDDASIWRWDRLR
Chain of PRC2 complex (EZH2 Y641F/EED/SUZ12/RbAp48/AEBP2) (Q15022 whole entry partner): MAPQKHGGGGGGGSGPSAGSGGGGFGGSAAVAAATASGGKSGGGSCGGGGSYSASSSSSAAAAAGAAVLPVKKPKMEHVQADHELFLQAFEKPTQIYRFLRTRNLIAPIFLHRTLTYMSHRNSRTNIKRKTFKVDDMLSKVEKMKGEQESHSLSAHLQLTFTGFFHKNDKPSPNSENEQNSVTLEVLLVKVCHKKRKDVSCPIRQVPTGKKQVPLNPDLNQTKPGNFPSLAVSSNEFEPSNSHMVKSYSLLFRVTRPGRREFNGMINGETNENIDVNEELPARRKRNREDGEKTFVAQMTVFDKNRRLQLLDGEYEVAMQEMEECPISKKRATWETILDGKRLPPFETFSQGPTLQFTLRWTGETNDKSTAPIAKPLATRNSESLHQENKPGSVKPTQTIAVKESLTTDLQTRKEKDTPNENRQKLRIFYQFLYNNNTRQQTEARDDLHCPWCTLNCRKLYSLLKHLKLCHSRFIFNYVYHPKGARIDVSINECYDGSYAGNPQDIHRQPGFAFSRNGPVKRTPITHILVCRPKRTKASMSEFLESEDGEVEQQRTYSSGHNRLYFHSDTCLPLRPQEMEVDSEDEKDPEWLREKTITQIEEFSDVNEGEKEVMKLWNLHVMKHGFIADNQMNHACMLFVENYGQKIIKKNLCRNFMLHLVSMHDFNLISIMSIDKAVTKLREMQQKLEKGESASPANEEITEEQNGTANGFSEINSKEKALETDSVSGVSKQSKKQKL
Chain of PRC2 complex (EZH2 Y641F/EED/SUZ12/RbAp48/AEBP2) (Q09028 whole entry partner): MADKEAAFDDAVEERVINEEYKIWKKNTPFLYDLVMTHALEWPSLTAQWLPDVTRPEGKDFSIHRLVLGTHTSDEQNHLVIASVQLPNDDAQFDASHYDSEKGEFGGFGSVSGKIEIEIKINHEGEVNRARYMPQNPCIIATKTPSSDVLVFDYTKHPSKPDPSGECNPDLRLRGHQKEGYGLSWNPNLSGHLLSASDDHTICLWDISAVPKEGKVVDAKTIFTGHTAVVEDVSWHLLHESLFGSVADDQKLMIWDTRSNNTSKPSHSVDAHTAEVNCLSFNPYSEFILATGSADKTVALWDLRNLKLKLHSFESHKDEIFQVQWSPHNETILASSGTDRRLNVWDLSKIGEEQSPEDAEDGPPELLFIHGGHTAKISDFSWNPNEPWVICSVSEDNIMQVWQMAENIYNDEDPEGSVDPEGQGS
Chain of PRC2 complex (EZH2 Y641F/EED/SUZ12/RbAp48/AEBP2) (Q6ZN18 whole entry partner): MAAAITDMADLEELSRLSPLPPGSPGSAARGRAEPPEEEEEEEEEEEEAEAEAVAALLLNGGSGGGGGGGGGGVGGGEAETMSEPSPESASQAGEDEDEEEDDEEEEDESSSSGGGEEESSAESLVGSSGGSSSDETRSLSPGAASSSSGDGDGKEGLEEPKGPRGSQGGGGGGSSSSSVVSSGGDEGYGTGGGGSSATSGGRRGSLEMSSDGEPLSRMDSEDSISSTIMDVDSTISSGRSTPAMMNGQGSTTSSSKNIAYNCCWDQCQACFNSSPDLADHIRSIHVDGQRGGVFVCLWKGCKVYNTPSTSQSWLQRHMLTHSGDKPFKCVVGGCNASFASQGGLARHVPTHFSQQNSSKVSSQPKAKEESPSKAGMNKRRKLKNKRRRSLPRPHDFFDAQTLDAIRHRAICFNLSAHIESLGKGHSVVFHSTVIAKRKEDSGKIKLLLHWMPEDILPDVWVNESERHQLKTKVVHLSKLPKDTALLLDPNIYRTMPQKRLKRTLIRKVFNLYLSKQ
Protocol: Determination of the Activity of a Compound to PRC2 Complex (EZH2Y641F):
Detection Method: Homogeneous Time-Resolved Fluorescence (HTRF)
Reaction was conducted in darkness at room temperature for 4 h. […] The IC50 values of the compounds were calculated using SoftMax Pro 5.4.1 software.

| SMILES | IC50 [1] [nM] | IC50 [nM] |
| --- | --- | --- |
| CCOC(C)c1c(C)c(C(=O)NCc2c(C)cc(C)[nH]c2=O)cc2cccn12 (centres unmarked) [Example 2, N-((4,6-Dimethyl-2-oxo-1,2-dihydropyridin-3-yl)methyl)-5-(1-ethoxyethyl)-6-methylindolizine-7-carboxamide] | 1000 to 10000 | – |
| Cc1cc(C)c(CNC(=O)c2cc3cc(Br)cn3c(C(C)N3CCN(CCC(F)(F)F)CC3)c2C)c(=O)[nH]1 (centres unmarked) [Example 104] | 100 to 1000 | – |
| Cc1cc(C)c(CNC(=O)c2cc3cc(-c4cccnc4)cn3c(C(C)N3CCC(N(C)C)CC3)c2C)c(=O)[nH]1 (centres unmarked) [Example 49, N-((4,6-dimethyl-2-oxo-1,2-dihydropyridin-3-yl)methyl)-5-(1-(4-(dimethylamino)piperidin-1-yl)ethyl)-6-methyl-2-(pyridin-3-yl)indolizine-7-carboxamide] | – | < 100 |
| COc1cc(C)[nH]c(=O)c1CNC(=O)c1cc2c(-c3ncnn3C)ccn2c(C(C)N2CCN(CC(F)(F)F)CC2)c1C (centres unmarked) [Compound 183, N-((4-methoxy-6-methyl-2-oxo-1,2-dihydropyridin-3-yl)methyl)-6-methyl-1-(1-methyl-1H-1,2,4-triazol-5-yl)-5-(1-(4-(2,2,2-trifluoroethyl)piperazin-1-yl)ethyl)indolizine-7-carboxamide] | < 100 | – |
| Cc1cc(C)c(CNC(=O)c2cc3cc(-c4ccc(N5CCNCC5)nc4)cn3c(C(C)N3CCOCC3)c2C)c(=O)[nH]1 (centres unmarked) [Example 90, N-((4,6-dimethyl-2-oxo-1,2-dihydropyridin-3-yl)methyl)-6-methyl-5-(1-morpholinoethyl)-2-(6-(piperazin-1-yl)pyridin-3-yl)indolizine-7-carboxamide] | 1000 to 10000 | – |
| CCN(c1c(C)c(C(=O)NCc2c(C)cc(C)[nH]c2=O)cc2cc(Br)cn12)C1CNC1 [Example 59] | 1000 to 10000 | – |
| Cc1cc(=O)c(CNC(=O)c2cc3c(-c4ccc(N)nc4)ccn3c(C(C)N3CCN(CC(F)(F)F)CC3)c2C)c(C)[nH]1 (centres unmarked) [Compound 184, 1-(6-aminopyridin-3-yl)-N-((2,6-dimethyl-4-oxo-1,4-dihydropyridin-3-yl)methyl)-6-methyl-5-(1-(4-(2,2,2-trifluoroethyl)piperazin-1-yl)ethyl)indolizine-7-carboxamide] | – | < 100 |
| Cc1cc(C)c(CNC(=O)c2cc3cc(Br)cn3c(C(C)N3CCN(S(C)(=O)=O)CC3)c2C)c(=O)[nH]1 (centres unmarked) [Example 103, 2-bromo-N-((4,6-dimethyl-2-oxo-1,2-dihydropyridin-3-yl)methyl)-6-methyl-5-(1-(4-(methylsulfonyl)piperazin-1-yl)ethyl)indolizine-7-carboxamide] | – | 100 to 1000 |
| COc1cc(C)[nH]c(=O)c1CNC(=O)c1cc2c(-c3c(C)noc3C)ccn2c(C(C)N2CCN(CC(F)(F)F)CC2)c1C (centres unmarked) [Compound 161, 1-(3,5-dimethylisoxazol-4-yl)-N-((4-methoxy-6-methyl-2-oxo-1,2-dihydropyridin-3-yl)methyl)-6-methyl-5-(1-(4-(2,2,2-trifluoroethyl)piperazin-1-yl)ethyl)indolizine-7-carboxamide] | < 100 | – |
| Cc1cc(C)c(CNC(=O)c2cc3cc(-c4cncs4)cn3c(C(C)N3CCN(CC(F)(F)F)CC3)c2C)c(=O)[nH]1 (centres unmarked) [Example 140] | 100 to 1000 | – |
| COc1ccc(-c2cc3cc(C(=O)NCc4c(C)cc(C)[nH]c4=O)c(C)c(C(C)N4CCOCC4)n3c2)c(OC)c1 (centres unmarked) [Example 38, 2-(2,4-dimethoxyphenyl)-N-((4,6-dimethyl-2-oxo-1,2-dihydropyridin-3-yl)methyl)-6-methyl-5-(1-morphinolinylethyl)indolizine-7-carboxamide] | < 100 | – |
| Cc1cc(C)c(CNC(=O)c2cc3cc(-c4ccn(C)n4)cn3c(C(C)N3CCC(N(C)C)CC3)c2C)c(=O)[nH]1 (centres unmarked) [Example 76] | 100 to 1000 | – |
| COc1cc(-c2cc3cc(C(=O)NCc4c(C)cc(C)[nH]c4=O)c(C)c(C(C)N4CCC(N(C)C)CC4)n3c2)cc(OC)c1OC (centres unmarked) [Example 92, N-((4,6-dimethyl-2-oxo-1,2-dihydropyridin-3-yl)methyl)-5-(1-(4-(dimethylamino)piperidine-1-yl)ethyl)-6-methyl-2-(3,4,5-trimethoxyphenyl)-indolizine-7-carboxamide] | < 100 | – |
| Cc1cc(C)c(CNC(=O)c2cc3cc(-c4ccn[nH]4)cn3c(C(C)N3CCOCC3)c2C)c(=O)[nH]1 (centres unmarked) [Example 112, N-((4,6-dimethyl-2-oxo-1,2-dihydropyridin-3-yl)methyl)-6-methyl-5-(1-morpholinoethyl)-2-(pyrazol-5-yl)indolizine-7-carboxamide] | < 100 | – |
| CCN(c1c(C)c(C(=O)NCc2c(C)cc(C)[nH]c2=O)cc2cc(Br)cn12)C1CCOCC1 [Example 58, 2-bromo-N-((4,6-dimethyl-2-oxo-1,2-dihydropyridin-3-yl)methyl)-5-(ethyl(tetrahydro-2H-pyran-4-yl)amino)-6-methylindolizine-7-carboxamide] | – | 100 to 1000 |
| CCN(c1c(C)c(C(=O)NCc2c(C)cc(C)[nH]c2=O)cc2cc(-c3cnn(C)c3)cn12)C1CCOCC1 [Example 66, N-((4,6-dimethyl-2-oxo-1,2-dihydropyridin-3-yl)methyl)-5-(ethyl(tetrahydro-2H-pyran-4-yl)amino)-6-methyl-2-(1-methyl-1H-pyrazol-4-yl)indolizin-7-carboxamide] | < 100 | – |
| Cc1[nH]c(=O)c(CNC(=O)c2cc3c(-c4ccc(N)nc4)ccn3c(C(C)N3CCN(CC(F)(F)F)CC3)c2C)c2c1CN(CC(C)C)CC2 (centres unmarked) [Compound 188, 1-(6-aminopyridin-3-yl)-N-((7-isobutyl-1-methyl-3-oxo-2,3,5,6,7,8-hexahydro-2,7-naphthyridin-4-yl)methyl)-6-methyl-5-(1-(4-(2,2,2-trifluoroethyl)piperazin-1-yl)ethyl)indolizine-7-carboxamide] | – | 100 to 1000 |
| COc1cccc(-c2cc3cc(C(=O)NCc4c(C)cc(C)[nH]c4=O)c(C)c(C(C)N4CCOCC4)n3c2)c1 (centres unmarked) [Example 95] | < 100 | – |
| Cc1cc(C)c(CNC(=O)c2cc3cc(-c4cncs4)cn3c(C(C)N3CCC(N(C)C)CC3)c2C)c(=O)[nH]1 (centres unmarked) [Example 138] | < 100 | – |
| Cc1cc(C)c(CNC(=O)c2cc3cc(C(=O)N4CCOCC4)cn3c(C(C)N3CCOCC3)c2C)c(=O)[nH]1 (centres unmarked) [Example 126, N-((4,6-dimethyl-2-oxo-1,2-dihydropyridin-3-yl)methyl)-6-methyl-2-(morpholin-4-carbonyl)-5-(1-morpholinoethyl)indolizine-7-carboxamide] | < 100 | – |
| COc1cc(C)[nH]c(=O)c1CNC(=O)c1cc2c(-c3cnc(C)nc3)ccn2c([C@H](C)N2CCN(CC(F)(F)F)CC2)c1C (single isomer, unassigned) [Compound 198, (S)—N-((4-methoxy-6-methyl-2-oxo-1,2-dihydropyridin-3-yl)methyl)-6-methyl-1-(2-methylpyrimidin-5-yl)-5-(1-(4-(2,2,2-trifluoroethyl)piperazin-1-yl)ethyl)indolizine-7-formamide or (R)—N-((4-methoxy-6-methyl-2-oxo-1,2-dihydropyridin-3-yl)methyl)-6-methyl-1-(2-methylpyrimidin-5-yl)-5-(1-(4-(2,2,2-trifluoroethyl)piperazin-1-yl)ethyl)indolizine-7-formamide] | < 100 | – |
| COc1ccc(-c2ccn3c(C(C)N4CCOCC4)c(C)c(C(=O)NCc4c(C)cc(C)[nH]c4=O)cc23)cc1 (centres unmarked) [Example 121, N-((4,6-dimethyl-2-oxo-1,2-dihydropyridin-3-yl)methyl)-6-methyl-5-(1-morpholinylethyl)-1-(4-methoxyphenyl)indolizine-7-carboxamide] | – | 100 to 1000 |
| Cc1cc(C)c(CNC(=O)c2cc3c(-c4ccc(N5CCOCC5)cc4)ccn3c(C(C)N3CCOCC3)c2C)c(=O)[nH]1 (centres unmarked) [Example 118, N-((4,6-dimethyl-2-oxo-1,2-dihydropyridin-3-yl)methyl)-1-(4-(dimethylamine)phenyl)-6-methyl-5-(1-morpholinylethyl)indolizine-7-carboxamide] | < 100 | – |
| COc1cc(-c2cc3cc(C(=O)NCc4c(C)cc(C)[nH]c4=O)c(C)c(C(C)N4CCOCC4)n3c2)cc(OC)c1OC (centres unmarked) [Example 37, N-((4,6-dimethyl-2-oxo-1,2-dihydropyridin-3-yl)methyl)-6-methyl-5-(1-morpholinylethyl)-2-(3,4,5-trimethoxyphenyl)indolizine-7-carboxamide] | – | < 100 |
| Cc1cc(C)c(CNC(=O)c2cc3cc(Br)cn3c(C(C)N3CCNCC3)c2C)c(=O)[nH]1 (centres unmarked) [Example 100] | – | 100 to 1000 |
| CNc1ccc(-c2ccn3c([C@H](C)N4CCN(CC(F)(F)F)CC4)c(C)c(C(=O)NCc4c(OC)cc(C)[nH]c4=O)cc23)cn1 (single isomer, unassigned) [Compound 165, (S)—N-((4-methoxy-6-methyl-2-oxo-1,2-dihydropyridin-3-yl)methyl)-6-methyl-1-(6-(methylamino)pyridin-3-yl)-5-(1-(4-(2,2,2-trifluoroethyl)piperazin-1-yl)ethyl)indolizine-7-formamide or (R)—N-((4-methoxy-6-methyl-2-oxo-1,2-dihydropyridin-3-yl)methyl)-6-methyl-1-(6-(methylamino)pyridin-3-yl)-5-(1-(4-(2,2,2-trifluoroethyl)piperazin-1-yl)ethyl)indolizine-7-formamide] | < 100 | – |
| COc1c(CNC(=O)c2cc3c(-c4ccc(N)nc4)ccn3c(C(C)N3CCN(CC(F)(F)F)CC3)c2C)c(=O)[nH]n1C (centres unmarked) [Compound 187, 1-(6-aminopyridin-3-yl)-N-((5-methoxy-1-methyl-3-oxo-2,3-dihydro-1H-pyrazole-4-yl)methyl)-6-methyl-5-(1-(4-(2,2,2-trifluoroethyl)piperazin-1-yl)ethyl)indolizine-7-carboxamide] | < 100 | – |
| Cc1cc(C)c(CNC(=O)c2cc3cccn3c(C(C)OC3C=CCCC3)c2C)c(=O)[nH]1 (centres unmarked) [Example 7, 5-((cyclohex-2-en-1-yloxy)ethyl)-N-((4,6-dimethyl-2-oxo-1,2-dihydropyridin-3-yl)methyl)-6-methylindolizine-7-carboxamide] | 100 to 1000 | – |
| Cc1cc(C)c(CNC(=O)c2cc3cc(Br)cn3c(C(C)N3CCN(C(=O)CO)CC3)c2C)c(=O)[nH]1 (centres unmarked) [Example 102] | 1000 to 10000 | – |
